Results taken from publication PMC4567917 (Bioorganic chemistry, 2015).
Read-outs that look alike come from different tables or passages of the source. Non-standard residues stand in square brackets, D forms with d. No end group written: not given here. *: point of attachment. Biotin = O=C1N[C@H]2[C@H](CS[C@H]2CCCCC(=O)*)N1; Dap = NC[C@H](N)C(=O)O; Ahx = NCCCCCC(=O)O

Key:
[1] = target: T1, mouse GOAT (Mus musculus, UniProt P0C7A3); assay: Microsomal ghrelin octanoyltransferase assay; conditions: for Vmax (apparent): ghrelin substrate varied, 25 μg microsome protein (2 ng GOAT); for Vmax (apparent) / maximum reaction rate, fold lower than for the natural Ser analogs: 1 μM octanoyl-CoA; for Vmax (apparent) / Km / Vmax (apparent) for octanoyl-CoA: 50 μM palmitoyl-CoA, 1 min at 30°C; for maximum reaction rate, fold lower than for the natural Ser analogs: relative to the Ser3 analog; for Km: read-out: Km (apparent) for octanoyl-CoA; for Km / Vmax (apparent) for octanoyl-CoA: 25 μg microsome protein
T1 sequence (P0C7A3 1-435): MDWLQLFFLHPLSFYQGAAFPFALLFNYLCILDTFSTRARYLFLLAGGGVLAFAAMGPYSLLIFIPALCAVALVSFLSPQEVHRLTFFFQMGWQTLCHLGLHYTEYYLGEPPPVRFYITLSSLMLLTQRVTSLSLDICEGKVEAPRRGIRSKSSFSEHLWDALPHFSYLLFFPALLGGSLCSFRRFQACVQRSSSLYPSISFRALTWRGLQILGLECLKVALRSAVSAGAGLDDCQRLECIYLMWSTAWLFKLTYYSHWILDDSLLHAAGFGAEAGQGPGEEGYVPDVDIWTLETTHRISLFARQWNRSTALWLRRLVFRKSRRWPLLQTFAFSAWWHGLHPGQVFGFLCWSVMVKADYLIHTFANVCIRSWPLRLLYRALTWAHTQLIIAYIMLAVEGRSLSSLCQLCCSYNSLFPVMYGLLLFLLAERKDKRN

[2] = target: T1, mouse GOAT; assay: Ghrelin octanoyltransferase assays at varying pH; format: biochemical; conditions: 7.5 μM and 100 μM substrate, 1 min, Bis-Tris propane pH 6–9
[3] = cited from earlier work
[4] = test system: GOAT; conditions: ref [33], cited from earlier work; for Km: read-out: published Km, published values

GS(Dap)FLSPEHQ(Ahx)K(Biotin)G [Dap3-Ghrelin10]
Vmax (apparent) [1]: 74 ± 8 nmol/min/mg | maximum reaction rate, fold lower than for the natural Ser analogs [1]: approximately 2 fold | variation of octanoylation rate across pH 6–9 [2]: ≤ 2 fold

GS[Dap]FLSPEHQRVQQRKESKKPPAKLQPK(Biotin)G [Dap3-Ghrelin27]
Vmax (apparent) [1]: 85 ± 5 nmol/min/mg | maximum reaction rate, fold lower than for the natural Ser analogs [1]: approximately 2 fold

NCC(N)C(=O)O (stereo not shown) [amino-Ala, 2,3-diaminoproprionic acid]
sidechain pKa (RNH3+ to RNH2) ([3]; peptide-incorporated residue, ref [36]): ~ 8

GSSFLSPEHQ[Ahx]K(Biotin)G [Ghrelin10]
Vmax (apparent) [1]: 160 ± 10 nmol/min/mg | fold higher apparent Km than Ghrelin27 ([1]; relative to Ghrelin27): ~ 10 fold | variation of octanoylation rate across pH 6–9 [2]: ≤ 2 fold

CCCCCCCC(=O)SCCNC(=O)CCNC(=O)[C@H](O)C(C)(C)COP(=O)(O)OP(=O)(O)OC[C@H]1O[C@@H](n2cnc3c(N)ncnc32)[C@H](O)[C@@H]1OP(=O)(O)O [Octanoyl-CoA, reference compound]
Km [4]: 0.6 µM | microsomal octanoyl-CoA hydrolysis ([4]; with 50 μM palmitoyl-CoA, under the conditions of the assay): < 25% | Km ([1]; vs 10 μM Ghrelin27): 0.44 ± 0.04 µM | Km ([1]; vs 80 μM Ghrelin10): 0.81 ± 0.04 µM | Vmax (apparent) for octanoyl-CoA ([1]; vs 10 μM Ghrelin27): 250 ± 8 nmol/min/mg | Vmax (apparent) for octanoyl-CoA ([1]; vs 80 μM Ghrelin10): 190 ± 4 nmol/min/mg

GSSFLSPEHQRVQQRKESKKPPAKLQPK (Biotin)G (GSSFLSPEHQRVQQRKESKKPPAKLQPK-{Gly(Biotin)}; not fully specified) [Ghrelin27]
Vmax (apparent) [1]: 230 ± 10 nmol/min/mg | fold lower apparent Km relative to Ghrelin10 ([1]; relative to Ghrelin10): 10 fold

N[C@@H](CO)C(=O)O [Ser]
sidechain pKa (ROH to RO-) ([3]; ref [37]): ~ 13

B1: proghrelin-His8: proghrelin with His8 tag; proghrelin is likely the natural substrate for GOAT (protein, UniProt Q9UBU3 24-117, looked up)
pro-form: GSSFLSPEHQRVQQRKESKKPPAKLQPRALAGWLRPEDGGQAEGAEDELEVRFNAPFDVGIKLSGVQYQQHSQALGKFLQDILWEEAKEAPADK
modifications: pro-form His8 tag
Km [4]: 6 µM
